Assay results from PMC10777851, “SMT-738: a novel small-molecule inhibitor of bacterial lipoprotein transport targeting Enterobacteriaceae” (Antimicrobial Agents and Chemotherapy, 2023).
In brackets after ≈: the same amount, converted by molar mass. Several values for one entry are separate records, joined by “and”; a condition that tells them apart may be missing. Equal entries are not always repeated.

Tests used:
[1] = system: K. pneumoniae ATCC 43816; experiment: Murine lung infection model (neutropenic); type: in vivo, male CD-1 mice; details: 20 mg/kg per dose QD or BID, 60-min IV infusion, 24 h post-infection
Experimental: Male JVC-cannulated CD-1 mice were rendered neutropenic using cyclophosphamide on days −4 and −1 (150 and 100 mg/kg, respectively). Mice were infected intranasally with K. pneumoniae ATCC 43816, and SMT-738 treatment was initiated at QD, 2 h post-infection; BID, 2 and 5 h post-infection. The pre-treatment control animals were euthanized at 2 h post-infection. All other study animals were euthanized at 24 h post-infection. Lungs were dissected and homogenized and quantitatively cultured, serially diluted, and plated on CLED agar, and CFU were quantified following overnight incubation at 30°C. A Kruskal-Wallis statistical test was performed.

[2] = Protein binding, dog; type: in vitro ADME
[3] = system: Edwardsiella tarda; experiment: MIC, panel of 100 bacterial species; type: cell-based
Experimental: (§1) MIC tests were performed by broth microdilution in-line with CLSI susceptibility testing standards ([20], [21]) either in-house or at IHMA (Europe and USA) or JMI Laboratories using cation-adjusted Mueller Hinton Broth.

[4] = system: Morganella morganii; experiment: MIC, panel of 100 bacterial species; type: cell-based
Experimental: as §1

[5] = system: Haemophilus parainfluenzae; experiment: MIC, panel of 100 bacterial species; type: cell-based
Experimental: as §1

[6] = system: Proteus sp.; experiment: MIC, panel of 100 bacterial species; type: cell-based
Experimental: as §1

[7] = system: Haemophilus influenzae; experiment: MIC, panel of 100 bacterial species; type: cell-based
Experimental: as §1

[8] = system: Hafnia alvei; experiment: MIC, panel of 100 bacterial species; type: cell-based
Experimental: as §1

[9] = Solubility in formulation vehicle; type: physicochemical; details: 20% Hydroxypropyl-β-cyclodextrin or phosphate buffer pH 6.0
[10] = system: UPEC (E. coli NCTC 13441) LolC and LolE mutants; experiment: MIC fold change of resistant LolC/LolE mutants, UPEC; type: cell-based, Escherichia coli
Experimental: as §1
The FoR of bacterial strains to test compounds was determined by plating aliquots of overnight cultures onto MH-agar plates containing dilutions of the test compound at various multiples of reference MIC as previously determined. Total viable counts of the overnight cultures were determined by spotting 10–20 µL of decimal dilutions in 1× phosphate-buffered saline (PBS) onto non-selective agar. Assay plates were incubated for up to 48 h with colonies being enumerated every 24 h. FoR was determined by dividing the number of colonies observed by the total number of viable cells plated. Representative colonies were then picked and streaked onto selective agar to confirm resistance and obtain resistant isolates. Isolates growing on selective agar were then used to initiate overnight cultures, bacteria pelleted by centrifugation, supernatant removed, and pellets stored at −80°C for subsequent DNA extraction and whole-genome sequencing. Genomic DNA was extracted using the DNeasy Blood and Tissue Kit (Qiagen), quantified using the Quant-iT TM PicoGreen TM dsDNA Assay Kit (Thermo Fisher Scientific), and normalized to 0.2 ng/µL in nuclease-free water. […]

[11] = system: HepG2 cells; experiment: Seahorse mitochondrial functional assay; type: cell-based; details: top concentration of 500 µM (= 196.85 µg/mL)
Experimental: The Seahorse mitochondrial functional assay was performed by Cyprotex, UK. HepG2 cells were dosed with test compound, and in real time, the extracellular oxygen levels and pH were measured using the Xfe96 flux analyzer (Seahorse Biosciences). Simultaneously, oxygen consumption rate and extracellular acidification rate were measured to determine its effect on oxidative phosphorylation.

[12] = Pharmacokinetics after IV bolus in mice; type: in vivo, male CD-1 mice; details: 20-mg/kg bolus IV
Experimental: Male CD-1 mice (from Charles River, Margate UK) were administered 20 mg/kg of SMT-738 via IV bolus route. At selected timepoints, blood, kidney tissue, lung tissue, and urine were collected and progressed for further analysis. The PK parameters included initial concentration (C 0) via extrapolation, clearance (CL), volume of distribution (V ss), and AUC0-t in plasma were determined using non-compartmental analysis. Tissue partitioning values were determined with ratio of AUC0-t,kidney/AUC0-t,plasma for kidney (K p,kidney) and ratio of AUC0-t,lung/AUC0-t,plasma for lung (K p,lung). The mean recovery (%) of SMT-738 unchanged in urine was determined by amount in urine compared to the intravenously administered dose. The study was conducted by Evotec Ltd (UK).

[13] = system: K. pneumoniae; experiment: MIC by broth microdilution (CLSI) against K. pneumoniae; type: cell-based, Klebsiella pneumoniae
Experimental: as §1

[14] = system: HepG2; experiment: Cytotoxicity (CellTiter-Glo), HepG2; type: cell-based; details: HepG2, 24 h
Experimental: HepG2 (ATCC, HB-8065) and HEK293 (ATCC, CRL-1573) were sourced from ATCC. For the cytotoxicity assay, cells were seeded onto 96-well plates, which were then incubated for 24 h in a 5% CO2 incubator at 37°C. On the day of the assay, 10-point, twofold serial dilutions of test compound were prepared in assay media (MEM + 10% FBS) in separate 96-well plates. Assay plates were removed from the incubator, and the media from all of the wells were removed, taking care not to disturb the cell layer. Compound-containing assay media or control media were added to the relevant wells. Assay plates were returned to the 5% CO2 incubator at 37°C for 24 h. CellTiter-Glo reagent (Promega, G7570) was used to determine the viability of the cells.

[15] = system: KPM (K. pneumoniae NCTC 13438) LolC and LolE mutants; experiment: MIC fold change of resistant LolC/LolE mutants, KPM; type: cell-based, Klebsiella pneumoniae
Experimental: as §1
The FoR of bacterial strains to test compounds was determined by plating aliquots of overnight cultures onto MH-agar plates containing dilutions of the test compound at various multiples of reference MIC as previously determined. Total viable counts of the overnight cultures were determined by spotting 10–20 µL of decimal dilutions in 1× phosphate-buffered saline (PBS) onto non-selective agar. Assay plates were incubated for up to 48 h with colonies being enumerated every 24 h. FoR was determined by dividing the number of colonies observed by the total number of viable cells plated. Representative colonies were then picked and streaked onto selective agar to confirm resistance and obtain resistant isolates. Isolates growing on selective agar were then used to initiate overnight cultures, bacteria pelleted by centrifugation, supernatant removed, and pellets stored at −80°C for subsequent DNA extraction and whole-genome sequencing. Genomic DNA was extracted using the DNeasy Blood and Tissue Kit (Qiagen), quantified using the Quant-iT TM PicoGreen TM dsDNA Assay Kit (Thermo Fisher Scientific), and normalized to 0.2 ng/µL in nuclease-free water. Library preparation and barcode addition were with the Nextera XT DNA Library Prep Kit (Illumina). KAPA Pure beads (Roche) were used for DNA purification. Samples were pooled to achieve 100× coverage of each sample and run on an Illumina Nextseq 500/550 Mid Output Kit v2.5 (150 cycles) (Illumina).

[16] = Protein binding, mouse; type: in vitro ADME
[17] = 100 MDR clinical isolates incl. ESBL and CRE

## Cc1cnccc1-c1[nH]c(N)nc1-c1ccc2c(c1)N(C(=O)C(C)(C)N)CCO2 [SMT-738]
[1]
  reduction of the bacterial burden below pre-treatment stasis level: 1–2 log10
[2]
  protein binding: 50.6%
[3]
  MIC: 32 µg/mL (≈ 81.5 µM)
[4]
  MIC: > 64 µg/mL
[5]
  MIC: 1 µg/mL (≈ 2.55 µM)
[6]
  MIC: 8 to 32 µg/mL
[7]
  MIC: 1 µg/mL (≈ 2.55 µM)
[8]
  MIC: 32 µg/mL (≈ 81.5 µM)
[9]
  Solubility: > 20 mg/mL
[10]; LolC L256R mutant
  MIC fold change increase: L256R (16×)
[10]; LolE D264A mutant
  MIC fold change increase: D264A (128×)
[11]
  mitotoxicity: No toxicity was observed
[12]; AUC0-t,kidney/AUC0-t,plasma
  Kp,kidney: 44.8
[12]; AUC0-t,lung/AUC0-t,plasma
  Kp,lung: 8.1
[12]; over a 24-h period
  eliminated unchanged into the urine: approximately 29.5%
[12]; plasma
  CL: 59 mL/min/kg
  Vss: 4.3 L/kg
[12]; plasma, via extrapolation
  C0: 18,386 ng/mL
[13]; 15 clinical MDR NDM isolates (NDM-1, NDM-4, NDM-5) from India (2018)
  MIC Range K. pneumoniae (NDM): 0.5 to 1 µg/mL
[13]; [17]
  MIC50 K. pneumoniae: 1 µg/mL (≈ 2.55 µM)
  MIC90 K. pneumoniae: 2 µg/mL (≈ 5.1 µM)
  MIC range K. pneumoniae: 0.25 to 8 µg/mL
[13]; K. pneumoniae ATCC 43816
  MIC: 0.5 µg/mL (≈ 1.27 µM)
[13]; K. pneumoniae IHMA 1769429, 20% human serum
  MIC (20% HS): 1 µg/mL (≈ 2.55 µM)
[13]; K. pneumoniae IHMA 1769429, 50% human serum
  MIC (50% HS): 2 µg/mL (≈ 5.1 µM)
[13]; K. pneumoniae IHMA 1769429, no human serum
  MIC (no HS): 2 µg/mL (≈ 5.1 µM)
[13]; K. pneumoniae IHMA 1770556, 20% human serum
  MIC (20% HS): 0.5 µg/mL (≈ 1.27 µM)
[13]; K. pneumoniae IHMA 1770556, 50% human serum
  MIC (50% HS): 1 µg/mL (≈ 2.55 µM)
[13]; K. pneumoniae IHMA 1770556, no human serum
  MIC (no HS): 1 µg/mL (≈ 2.55 µM)
[13]; K. pneumoniae NCTC 13438 (MDR, Class A KPC)
  MIC: 1.56 µM and 0.61 µg/mL
[13]; Kpm13438, reference MIC of the FoR experiments
  MICref: 3.13 µM and 1.22 µg/mL
[14]
  IC50: > 200 µM
  cytotoxicity IC50: > 78.74 µg/mL
[15]; LolC E198K mutant
  MIC fold change increase: E198K (64×)
[15]; LolE L60P mutant
  MIC fold change increase: L60P (16×)
[15]; LolE M261R mutant
  MIC fold change increase: M261R (>64×)
[16]
  protein binding: 66.9%
